Target: T1, GTPBP6 (Homo sapiens, UniProt O43824)
T1 construct: Δ43GTPBP6 (first 43 residues removed); 6xHis-MBP tag cleaved with TEV; expressed in E. coli BL21 (DE3) RIL; modelled residues 94-515
T1 sequence (O43824 44-516): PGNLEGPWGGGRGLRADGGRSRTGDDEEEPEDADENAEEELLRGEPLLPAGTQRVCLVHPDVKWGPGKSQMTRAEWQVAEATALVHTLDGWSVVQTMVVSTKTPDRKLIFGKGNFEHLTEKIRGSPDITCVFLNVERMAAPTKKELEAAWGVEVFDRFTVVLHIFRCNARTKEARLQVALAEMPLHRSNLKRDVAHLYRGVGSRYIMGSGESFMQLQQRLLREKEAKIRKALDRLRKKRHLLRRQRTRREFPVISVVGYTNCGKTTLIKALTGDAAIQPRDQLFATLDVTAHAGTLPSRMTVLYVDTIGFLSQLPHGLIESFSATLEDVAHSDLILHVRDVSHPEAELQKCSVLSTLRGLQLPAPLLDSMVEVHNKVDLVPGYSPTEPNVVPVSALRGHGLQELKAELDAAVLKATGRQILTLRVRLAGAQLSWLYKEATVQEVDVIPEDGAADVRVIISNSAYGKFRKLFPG
Assay: cryo-EM structure of GTPBP6-bound mtLSU
Type: binding
Settings: bound in GTPase domain; 1 mM GTP and 1 mM ATP, pH 7.4, 4 °C; biogenesis intermediate at 2.6 Å and mature mtLSU at 2.7 Å

With Nc1nc2c(ncn2[C@@H]2O[C@H](COP(=O)(O)OP(=O)(O)OP(=O)(O)O)[C@@H](O)[C@H]2O)c(=O)[nH]1 [GTP] as the compound, how does the “cryo-EM structure of GTPBP6-bound mtLSU” value read?
Its value is “shows clear density for a bound GTP molecule”.
